Data: US20260363243A1 (priority 2022, published 2026)
Read-outs that look alike come from different tables or passages of the source.

Experiments:
[1] = tested on: cucumber downy mildew; settings: Table 3, data from Li, J. L. et al. 2020, cited from earlier work
[2] = tested on: cucumber downy mildew; assay: Activity in vivo for inhibiting cucumber downy mildew (potting method, greenhouse); settings: re-screening, Table 2
Description: The test and investigation method refers to a SOP-SC-1098 cucumber downy mildew potting method in the fungicide section of Standard operation Specification for testing biological Activity of pesticides written by Kang Zhuo and Gu Baogen.

| Compound | Control effect ([1]; 0.625 mg/L) | Control effect ([1]; 2.5 mg/L) | Control effect ([1]; 10 mg/L) | Control effect ([2]; 0.02 mg/L) | Control effect ([2]; 0.078 mg/L) | Control effect ([2]; 0.312 mg/L) | Control effect ([2]; 1.25 mg/L) |
| --- | --- | --- | --- | --- | --- | --- | --- |
| CC/C=C/CC(=O)N1CCC(c2nc(C3=NOC(c4c(F)cccc4F)C3)cs2)CC1 (centres unmarked) [comparative 2] | D (45% ≤ D < 60%) | B (75% ≤ B < 90%) | A (90% ≤ A ≤ 100%) |  |  |  |  |
| CC/C(C)=C/CC(=O)N1CCC(c2nc(C3=NOC(c4c(F)cccc4F)C3)cs2)CC1 (centres unmarked) [comparative 3] | E (0% ≤ E < 45%) | C (60% ≤ C < 75%) | A (90% ≤ A ≤ 100%) |  |  |  |  |
| O=C(CCO)N1CCC(c2nc(C3=NOC(c4c(F)cccc4F)C3)cs2)CC1 (centres unmarked) [comparative 4] | E (0% ≤ E < 45%) | E (0% ≤ E < 45%) | D (45% ≤ D < 60%) |  |  |  |  |
| O=C(CC1CCCCC1)N1CCC(c2nc(C3=NOC(c4c(F)cccc4F)C3)cs2)CC1 (centres unmarked) [comparative 5] | E (0% ≤ E < 45%) | D (45% ≤ D < 60%) | A (90% ≤ A ≤ 100%) |  |  |  |  |
| O=C(CN1CCCCC1)N1CCC(c2nc(C3=NOC(c4c(F)cccc4F)C3)cs2)CC1 (centres unmarked) [comparative 6] | E (0% ≤ E < 45%) | E (0% ≤ E < 45%) | E (0% ≤ E < 45%) |  |  |  |  |
| O=C(CN1CCCC(O)C1)N1CCC(c2nc(C3=NOC(c4c(F)cccc4F)C3)cs2)CC1 (centres unmarked) [comparative 7] | E (0% ≤ E < 45%) | E (0% ≤ E < 45%) | E (0% ≤ E < 45%) |  |  |  |  |
| Cc1ccc(-c2c(Cl)nc(C#N)n2S(=O)(=O)N(C)C)cc1 [cyazofamid, reference compound] |  |  |  | E (0%≤E<45%) | B (75%≤B<90%) | A (90%≤A≤100%) | A (90%≤A≤100%) |
| COc1ccc(C(=CC(=O)N2CCOCC2)c2ccc(Cl)cc2)cc1OC [dimethomorph, reference compound] |  |  |  | C (60%≤C<75%) | B (75%≤B<90%) | A (90%≤A≤100%) | A (90%≤A≤100%) |
